Earlier results in patent publication US8865753B2, “Compounds as cannabinoid receptor ligands” (priority 2007, dated 2014).

Columns and labels:
animal models = animal models of acute thermal pain, persistent pain, inflammatory pain and neuropathic pain
rodent = rodent models of neuropathic, incisional, and both chronic and acute inflammatory pain
rat = rat formalin model of persistent pain; Hanus et al. 1999
microglial = conditions: in vitro; Ramirez et al. 2005
[1] = test system: apolipoprotein E knockout mice; conditions: Steffens et al. 2005
mice = conditions: model for post-menopausal osteoporosis, Ralston et al. 2005
osteoclast = conditions: Ralston et al. 2005

CN1CCCCC1Cn1cc(C(=O)c2cc([N+](=O)[O-])ccc2I)c2ccccc21 (stereo not drawn) [AM-1241]
analgesic efficacy (animal models): robust analgesic efficacy

COc1ccc2c(c1)c(CCN1CCOCC1)c(C)n2C(=O)c1cccc(Cl)c1Cl [GW405833]
efficacy in pain models (rodent): efficacious

CCCCCCC(C)(C)c1cc(OC)c([C@@H]2C=C(CO)[C@@H]3C[C@H]2C3(C)C)c(OC)c1 [HU-308]
antinociceptive response (rat): elicits an antinociceptive response

CCCC(C)(C)c1ccc2c(c1)OC(C)(C)[C@@H]1CC=C(C)C[C@@H]21 [JWH-133]
β-amyloid-induced microglial activation and neurotoxicity (microglial): abrogated

(−)-Δ^9-Tetrahydrocannabinol [THC]
progression of atherosclerotic lesions ([1]; low doses): slowed the progression of atherosclerotic lesions

SR144528
blockade of the effects of JWH-133 (microglial): blocked | inhibition of the effects of THC on atherosclerotic lesions [1]: inhibited | ovariectomy-induced bone loss (mice): reverse ovariectomy-induced bone loss | osteoclast activity (osteoclast): inhibit osteoclast activity
